Assay results taken from the NIST ThermoML archive (doi:10.1021/acs.jced.5b00623).
Where “and” joins values, the source holds several entries; their conditions need not be identical. Equal values may be shown once. ± gives the expanded uncertainty stated by the source.

Conditions: for mass density: Buoyancy - hydrostatic balance with magnetic suspension - two sinkers; for vapor or sublimation pressure: Closed cell (Static) method; for speed of sound: Spherical resonator

O=C(C(F)(F)C(F)(F)F)C(F)(C(F)(F)F)C(F)(F)F [dodecafluoro-2-methylpentan-3-one]
mass density (400.01 K, 16056 kPa, Liquid): 1413.68 ± 0.19 kg/m3
mass density (400.01 K, 24343 kPa, Liquid): 1465.04 ± 0.2 kg/m3
vapor or sublimation pressure (400.01 K, Liquid): 826 ± 2 kPa
speed of sound (400.05 K, 54.88 kPa, Gas): 102.64 ± 0.2 m/s
speed of sound (400.05 K, 54.92 kPa, Gas): 102.64 ± 0.2 m/s
speed of sound (400.05 K, 154.66 kPa, Gas): 99.83 ± 0.2 m/s
speed of sound (400.05 K, 252.99 kPa, Gas): 96.94 ± 0.2 m/s
speed of sound (400.05 K, 354.19 kPa, Gas): 93.75 ± 0.19 m/s
speed of sound (400.05 K, 451.42 kPa, Gas): 90.4 ± 0.19 m/s
speed of sound (400.05 K, 554.73 kPa, Gas): 86.45 ± 0.18 m/s
speed of sound (400.05 K, 667.8 kPa, Gas): 81.52 ± 0.17 m/s
mass density (402 K, 14323 kPa, Liquid): 1395.32 ± 0.18 kg/m3
mass density (410.01 K, 16854 kPa, Liquid): 1394.24 ± 0.19 kg/m3
vapor or sublimation pressure (410.02 K, Liquid): 1016 ± 2.2 kPa
vapor or sublimation pressure (410.03 K, Liquid): 1014.3 ± 2.2 kPa
mass density (420 K, 19987 kPa, Liquid): 1392.85 ± 0.19 kg/m3
mass density (420.02 K, 6075.7 kPa, Liquid): 1241.69 ± 0.17 kg/m3
vapor or sublimation pressure (420.02 K, Liquid): 1238.2 ± 2.5 kPa and 1238.3 ± 2.5 kPa
speed of sound (425.04 K, 60.31 kPa, Gas): 105.94 ± 0.21 m/s
speed of sound (425.04 K, 144.61 kPa, Gas): 104 ± 0.21 m/s
speed of sound (425.04 K, 258 kPa, Gas): 101.36 ± 0.2 m/s
speed of sound (425.04 K, 399.11 kPa, Gas): 97.86 ± 0.2 m/s
speed of sound (425.04 K, 546.05 kPa, Gas): 93.91 ± 0.19 m/s
speed of sound (425.04 K, 696.35 kPa, Gas): 89.45 ± 0.19 m/s
speed of sound (425.04 K, 845.73 kPa, Gas): 84.47 ± 0.18 m/s
speed of sound (425.04 K, 951.86 kPa, Gas): 80.49 ± 0.17 m/s
speed of sound (425.04 K, 1061.7 kPa, Gas): 75.84 ± 0.17 m/s
mass density (429.99 K, 8117.7 kPa, Liquid): 1240.57 ± 0.17 kg/m3
mass density (430.02 K, 23113 kPa, Liquid): 1391.48 ± 0.19 kg/m3
mass density (440 K, 10172 kPa, Liquid): 1239.42 ± 0.17 kg/m3
mass density (440.01 K, 26214 kPa, Liquid): 1390.14 ± 0.2 kg/m3
speed of sound (449.97 K, 1492 kPa, Gas): 74.05 ± 0.17 m/s
speed of sound (449.98 K, 99.8 kPa, Gas): 108.43 ± 0.21 m/s
speed of sound (449.98 K, 296.98 kPa, Gas): 104.72 ± 0.21 m/s
speed of sound (449.98 K, 499.37 kPa, Gas): 100.64 ± 0.2 m/s
speed of sound (449.98 K, 701.04 kPa, Gas): 96.26 ± 0.2 m/s
speed of sound (449.98 K, 901.63 kPa, Gas): 91.5 ± 0.19 m/s
speed of sound (449.98 K, 1104.8 kPa, Gas): 86.19 ± 0.18 m/s
speed of sound (449.98 K, 1292.1 kPa, Gas): 80.71 ± 0.17 m/s
speed of sound (449.98 K, 1680.8 kPa, Gas): 66.68 ± 0.15 m/s
mass density (450 K, 12226 kPa, Gas): 1238.27 ± 0.18 kg/m3
mass density (450.01 K, 394.1 kPa, Gas): 35.895 ± 0.17 kg/m3
mass density (450.01 K, 913.4 kPa, Gas): 93.929 ± 0.2 kg/m3
mass density (450.01 K, 1478.4 kPa, Gas): 185.135 ± 0.4 kg/m3
mass density (450.01 K, 2042.6 kPa, Gas): 417.845 ± 0.77 kg/m3
mass density (450.01 K, 2500.6 kPa, Gas): 856.702 ± 0.45 kg/m3
mass density (450.01 K, 2998.2 kPa, Gas): 943.857 ± 0.18 kg/m3
mass density (450.01 K, 3997.1 kPa, Gas): 1026.46 ± 0.17 kg/m3
mass density (450.01 K, 4993.9 kPa, Gas): 1075.63 ± 0.18 kg/m3
mass density (450.01 K, 5983.6 kPa, Gas): 1111.42 ± 0.17 kg/m3
mass density (450.01 K, 8215.2 kPa, Gas): 1169.39 ± 0.17 kg/m3
mass density (450.01 K, 12010 kPa, Gas): 1235.17 ± 0.17 kg/m3
mass density (450.01 K, 15954 kPa, Gas): 1283.62 ± 0.18 kg/m3
mass density (450.01 K, 19948 kPa, Gas): 1321.88 ± 0.19 kg/m3
mass density (450.01 K, 29286 kPa, Gas): 1388.75 ± 11 kg/m3
mass density (460 K, 14282 kPa, Gas): 1237.17 ± 0.18 kg/m3
mass density (469.99 K, 2186.2 kPa, Gas): 306.462 ± 0.37 kg/m3
mass density (469.99 K, 2797.9 kPa, Gas): 560.84 ± 0.42 kg/m3
mass density (469.99 K, 3424.1 kPa, Gas): 779.472 ± 0.23 kg/m3
mass density (469.99 K, 6087.4 kPa, Gas): 1018.11 ± 0.15 kg/m3
mass density (470 K, 680 kPa, Gas): 61.543 ± 0.17 kg/m3
mass density (470 K, 1356.4 kPa, Gas): 142.264 ± 0.23 kg/m3
mass density (470 K, 4374.3 kPa, Gas): 910.538 ± 0.15 kg/m3
mass density (470 K, 7969.1 kPa, Gas): 1085.6 ± 0.16 kg/m3
mass density (470 K, 9768.9 kPa, Gas): 1131.11 ± 0.16 kg/m3
mass density (470 K, 11977 kPa, Gas): 1173.86 ± 0.17 kg/m3
mass density (470 K, 14031 kPa, Gas): 1205.91 ± 0.18 kg/m3
mass density (470 K, 16332 kPa, Gas): 1236.02 ± 0.18 kg/m3
speed of sound (475.01 K, 147.79 kPa, Gas): 110.98 ± 0.22 m/s
speed of sound (475.01 K, 349.5 kPa, Gas): 107.83 ± 0.21 m/s
speed of sound (475.01 K, 501.76 kPa, Gas): 105.38 ± 0.21 m/s
speed of sound (475.01 K, 501.77 kPa, Gas): 105.38 ± 0.21 m/s
speed of sound (475.01 K, 501.78 kPa, Gas): 105.38 ± 0.21 m/s
speed of sound (475.01 K, 501.8 kPa, Gas): 105.38 ± 0.21 m/s
speed of sound (475.01 K, 697.46 kPa, Gas): 102.08 ± 0.2 m/s
speed of sound (475.01 K, 898.52 kPa, Gas): 98.51 ± 0.2 m/s
speed of sound (475.01 K, 1150.9 kPa, Gas): 93.77 ± 0.19 m/s
speed of sound (475.01 K, 1296.2 kPa, Gas): 90.92 ± 0.19 m/s
speed of sound (475.01 K, 1496.6 kPa, Gas): 86.78 ± 0.18 m/s
speed of sound (475.01 K, 1685 kPa, Gas): 82.69 ± 0.18 m/s
speed of sound (500.01 K, 103.24 kPa, Gas): 114.77 ± 0.22 m/s
speed of sound (500.01 K, 301.45 kPa, Gas): 112.25 ± 0.22 m/s
speed of sound (500.01 K, 502.44 kPa, Gas): 109.63 ± 0.21 m/s
speed of sound (500.01 K, 502.55 kPa, Gas): 109.63 ± 0.21 m/s
speed of sound (500.01 K, 502.62 kPa, Gas): 109.63 ± 0.21 m/s
speed of sound (500.01 K, 502.7 kPa, Gas): 109.63 ± 0.21 m/s
speed of sound (500.01 K, 502.81 kPa, Gas): 109.64 ± 0.21 m/s
speed of sound (500.01 K, 503 kPa, Gas): 109.64 ± 0.21 m/s
speed of sound (500.01 K, 703.51 kPa, Gas): 106.95 ± 0.21 m/s
speed of sound (500.01 K, 893.84 kPa, Gas): 104.33 ± 0.21 m/s
speed of sound (500.01 K, 1100.4 kPa, Gas): 101.42 ± 0.2 m/s
speed of sound (500.01 K, 1100.8 kPa, Gas): 101.42 ± 0.2 m/s
speed of sound (500.01 K, 1308.1 kPa, Gas): 98.44 ± 0.2 m/s
speed of sound (500.01 K, 1503.6 kPa, Gas): 95.59 ± 0.19 m/s
speed of sound (500.01 K, 1746.5 kPa, Gas): 92 ± 0.19 m/s
speed of sound (500.02 K, 1746.7 kPa, Gas): 92 ± 0.19 m/s
speed of sound (500.02 K, 1746.9 kPa, Gas): 91.99 ± 0.19 m/s
